Test results as given in the NIST ThermoML archive (doi:10.1016/j.jct.2016.03.020).

Conditions: Liquid, Gas chromatography

Cc1coc2c1CC[C@@H](C)C2 [(R)-menthofuran]
Conditions	vapor or sublimation pressure [kPa]
298.15 K	0.036
374.3 K	2.93
380 K	3.76
400 K	8.37
420 K	17.06
482.4 K	101.23
